These results are taken from ChEMBL document CHEMBL4177679, “The identification of a novel lead class for phosphodiesterase 2 inhibition by fragment-based drug design” (Bioorg Med Chem Lett, 2017).

Data set [1] can be described thus: Solubility of the compound at pH 6.5. The format is physicochemical. Conditions: buffer.
Data set [2] is described as follows: Clearance in po dosed rat. It is filed as ADME, organism-based. Conditions: in vivo.
Data set [3] concerns Rattus norvegicus. In words: Dose normalized AUC in po dosed rat. The format is ADME, organism-based. To be noted: in vivo.
The test system of data set [4] is Rattus norvegicus. In words: Volume of distribution in po dosed rat. The format is ADME, organism-based. To be noted: in vivo.
Data set [5] can be described thus: Half-life in po dosed rat. It is filed as ADME, organism-based. Conditions: in vivo.
Data set [6] can be described thus: Oral bioavailability in rat. It is filed as ADME, organism-based. Conditions: in vivo.
For a further data set, the system named is rat MDR1A. Kind of data set: Apparent permeability in pig LLC-PK1 expressing rat MDR1A. The format is ADME, cell-based, Sus scrofa.

Values after ≈ are worked out from the molar mass of the structure shown.

In data set [1], `Cn1ncc2c(NC3(c4ccc(C(F)(F)F)cc4)CC3)nc(O)nc21` gave a solubility of 175 µM (≈ 61.1 µg/mL).

Consider `Cn1ncc2c(NCc3ccc(C(F)(F)F)cn3)nc(Cl)nc21`, for which the concentration in solution in data set [1] (solubility) came to 176 µM (≈ 60.3 µg/mL). Still for that read-out and setting: the value for `Cn1ncc2c(NC(C)(C)c3ccc(C(F)(F)F)cc3)nc(Cl)nc21` was 183 µM (≈ 67.7 µg/mL). Still for that read-out and setting: the value for `Cn1ncc2c(NCCc3ccc(C(F)(F)F)cc3)nc(Cl)nc21` was 150 µM (≈ 53.4 µg/mL); that for `Cn1ncc2c(NC3(c4ccc(C(F)(F)F)cc4)CC3)nc(Cl)nc21` was 156 µM (≈ 57.4 µg/mL). `Cn1ncc2c(NCc3ccc(C(F)(F)F)cc3)nc(Cl)nc21`: the concentration in solution in data set [1] (solubility) came to 164 µM (≈ 56 µg/mL). On to `Cn1ncc2c(N3CCCCC3c3ccc(C(F)(F)F)cc3)nc(Cl)nc21` (configuration not stated), for which the solubility in data set [1] was determined as 138 µM (≈ 54.6 µg/mL).

Consider `C[C@@H](Nc1nc(Cl)nc2c1cnn2C)c1ccc(C(F)(F)F)cc1`, for which the concentration in solution in data set [1] (solubility) came to 159 µM (≈ 56.6 µg/mL). For `Cc1nc(NC2(c3ccc(C(F)(F)F)cc3)CC2)c2cnn(C)c2n1`, in data set [2], the CL/F is 44.4 mL/min/kg. This molecule also registered an AUC/dose in the data set on Rattus norvegicus [3] of 0.24 µM·kg·h/mg. In the data set with Rattus norvegicus [4], this molecule displayed a Vd of 3.78 L/kg. The molecule also had a half-life in data set [5] of 1.34 h. In data set [6], the bioavailability is 16.9%. Besides, the Papp in the data set with rat MDR1A fell in the range of 0.82 to 26.7 ×10⁻⁶ cm/s. Consider `Cn1ncc2c(NCc3cccc(Cl)c3)nc(Cl)nc21`, for which the concentration in solution in data set [1] (solubility) came to 78 µM (≈ 24 µg/mL). `Cn1ncc2c(NCc3ccccc3Cl)nc(Cl)nc21` returned a solubility in data set [1] of 44 µM (≈ 13.6 µg/mL).

In data set [1], `Cn1ncc2c(NC3(c4ccc(C(F)(F)F)cc4)CC3)nc(C3CC3)nc21` returned a solubility of 125 µM (≈ 46.7 µg/mL). Still for that read-out and setting: under `Cn1ncc2c(N3CCCC3c3ccc(C(F)(F)F)cc3)nc(Cl)nc21` (configuration not stated) stands 139 µM (≈ 53.1 µg/mL).

In turn, `FC(F)(F)c1ccc(C2(Nc3nc(Cl)nc4[nH]ncc34)CC2)cc1` yielded a solubility in data set [1] of 105 µM (≈ 37.1 µg/mL). The same molecule returned a CL/F in data set [2] of 8.44 mL/min/kg. Further, the AUC/dose with Rattus norvegicus [3] is 6.59 µM·kg·h/mg. Further, the Vd in the data set with Rattus norvegicus [4] is 4.64 L/kg. The half-life in data set [5] is 6.33 h. Further, in data set [6], the bioavailability turned out to be 146%. Moreover, the Papp with rat MDR1A lay in the range of 1.63 to 26.5 ×10⁻⁶ cm/s. In turn, `CNc1nc(Cl)nc2c1cnn2C` returned a solubility in data set [1] of 206 µM (≈ 40.7 µg/mL). Turning to `Cn1ncc2c(NCc3ccc(Cl)cc3)nc(Cl)nc21`, the concentration in solution in data set [1] (solubility) was 145 µM (≈ 44.7 µg/mL).

A word on the solubility: it is how much of the substance goes into solution per volume. One may read the CL/F as clearance divided by bioavailability, as obtained after extravascular dosing. One may read the half-life as how long it takes for the measured level to halve. A high value points to slow decline. In general, Papp refers to the rate of passage across a membrane or cell layer, normalised by area and donor concentration.
